Results as given in PubChem BioAssay (NCI).
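Growth conditions: 96-well plates. Treatment: test compound, 48 hours, 5 concentrations. Analysis: linear interpolation between bracketing concentrations; unreached endpoints set to highest concentration. TGI: total growth inhibition.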

Legend:
Experiment in all cases: NCI anticancer screen, dose series, 48 h
SF-539 CNS = test system: SF-539 CNS
K-562 leukemia = test system: K-562 leukemia
SK-MEL-5 melanoma = test system: SK-MEL-5 melanoma
HOP-92 NSCLC = test system: HOP-92 NSCLC
NCI-H23 lung = test system: NCI-H23 lung
HT29 colon = test system: HT29 colon
TK-10 renal = test system: TK-10 renal
MALME-3M melanoma = test system: MALME-3M melanoma
UACC-62 melanoma = test system: UACC-62 melanoma
OVCAR-3 ovarian = test system: OVCAR-3 ovarian
DMS 114 small cell lung = test system: DMS 114 small cell lung
U251 CNS = test system: U251 CNS
EKVX NSCLC = test system: EKVX NSCLC
CAKI-1 renal = test system: CAKI-1 renal
OVCAR-5 ovarian = test system: OVCAR-5 ovarian
SK-MEL-2 melanoma = test system: SK-MEL-2 melanoma
SF-295 CNS = test system: SF-295 CNS
OVCAR-8 ovarian = test system: OVCAR-8 ovarian
RXF 393 renal = test system: RXF 393 renal
HL-60(TB) leukemia = test system: HL-60(TB) leukemia
UO-31 renal = test system: UO-31 renal
IGROV1 ovarian = test system: IGROV1 ovarian
M19-MEL melanoma = test system: M19-MEL melanoma
HOP-18 NSCLC = test system: HOP-18 NSCLC
DMS 273 small cell lung = test system: DMS 273 small cell lung
KM12 colon = test system: KM12 colon
SNB-19 CNS = test system: SNB-19 CNS
HCT-15 colon = test system: HCT-15 colon
LXFL 529 NSCLC = test system: LXFL 529 NSCLC
M14 melanoma = test system: M14 melanoma
LOX IMVI melanoma = test system: LOX IMVI melanoma
KM20L2 colon = test system: KM20L2 colon
SN12C renal = test system: SN12C renal
UACC-257 melanoma = test system: UACC-257 melanoma
A549 NSCLC = test system: A549 NSCLC
OVCAR-4 ovarian = test system: OVCAR-4 ovarian
HCT-116 colon = test system: HCT-116 colon
DLD-1 colon = test system: DLD-1 colon
RPMI-8226 leukemia = test system: RPMI-8226 leukemia
ACHN renal = test system: ACHN renal
A498 renal = test system: A498 renal
SNB-75 CNS = test system: SNB-75 CNS
SNB-78 CNS = test system: SNB-78 CNS
HOP-62 NSCLC = test system: HOP-62 NSCLC
NCI-H226 lung = test system: NCI-H226 lung
SK-OV-3 ovarian = test system: SK-OV-3 ovarian
SW-620 colon = test system: SW-620 colon
SR leukemia = test system: SR leukemia
786-0 renal = test system: 786-0 renal
MOLT-4 leukemia = test system: MOLT-4 leukemia
SK-MEL-28 melanoma = test system: SK-MEL-28 melanoma
NCI-H522 lung = test system: NCI-H522 lung
HCC-2998 colon = test system: HCC-2998 colon

SMILES: CN(C)CCNC(=O)c1cccc2nc3cc(Cl)ccc3nc12
- TGI (SF-539 CNS): 11.4 µM
- TGI (K-562 leukemia): 4.14 µM
- TGI (SK-MEL-5 melanoma): > 33.6 µM
- TGI (HOP-92 NSCLC): > 23.8 µM
- TGI (NCI-H23 lung): 5.26 µM
- TGI (HT29 colon): 6.22 µM
- TGI (TK-10 renal): 15 µM
- TGI (MALME-3M melanoma): 4.8 µM
- TGI (UACC-62 melanoma): 9.67 µM
- TGI (OVCAR-3 ovarian): 6.15 µM
- TGI (DMS 114 small cell lung): 6.69 µM
- TGI (U251 CNS): 12.4 µM
- TGI (EKVX NSCLC): 18.1 µM
- TGI (CAKI-1 renal): > 23.5 µM
- TGI (OVCAR-5 ovarian): 7.62 µM
- TGI (SK-MEL-2 melanoma): 7.57 µM
- TGI (SF-295 CNS): > 27.8 µM
- TGI (OVCAR-8 ovarian): > 21.3 µM
- TGI (RXF 393 renal): 6.31 µM
- TGI (HL-60(TB) leukemia): 13.9 µM
- TGI (UO-31 renal): > 29.1 µM
- TGI (IGROV1 ovarian): > 50.6 µM
- TGI (M19-MEL melanoma): 3.89 µM
- TGI (HOP-18 NSCLC): > 63.2 µM
- TGI (DMS 273 small cell lung): > 100 µM
- TGI (KM12 colon): 15.2 µM
- TGI (SNB-19 CNS): 16.9 µM
- TGI (HCT-15 colon): 11.5 µM
- TGI (LXFL 529 NSCLC): > 22.3 µM
- TGI (M14 melanoma): > 21.9 µM
- TGI (LOX IMVI melanoma): 2.86 µM
- TGI (KM20L2 colon): 9.08 µM
- TGI (SN12C renal): 10.7 µM
- TGI (UACC-257 melanoma): 8.69 µM
- TGI (A549 NSCLC): > 26.7 µM
- TGI (OVCAR-4 ovarian): 8.54 µM
- TGI (HCT-116 colon): 2.23 µM
- TGI (DLD-1 colon): 20.3 µM
- TGI (RPMI-8226 leukemia): 31.6 µM
- TGI (ACHN renal): 4.22 µM
- TGI (A498 renal): 4.65 µM
- TGI (SNB-75 CNS): 15.4 µM
- TGI (SNB-78 CNS): 10.5 µM
- TGI (HOP-62 NSCLC): 5.61 µM
- TGI (NCI-H226 lung): 5.14 µM
- TGI (SK-OV-3 ovarian): > 40.3 µM
- TGI (SW-620 colon): > 23.7 µM
- TGI (SR leukemia): > 100 µM
- TGI (786-0 renal): > 31 µM
- TGI (MOLT-4 leukemia): 2.77 µM
- TGI (SK-MEL-28 melanoma): 8.27 µM
- TGI (NCI-H522 lung): > 100 µM
- TGI (HCC-2998 colon): 10.7 µM
